Read-outs that look alike come from different tables or passages of the source.

Among the data in paper PMC11106541, “Library screening identifies commercial drugs as potential structure correctors of abnormal apolipoprotein A-I” (Journal of Lipid Research, 2024) are EC50 values, retold here.

The target of experiment [1] is T1, apoA-I[L178P] (Homo sapiens, UniProt P02647, L202P).
T1 construct: gene APOA1; recombinant lipid-free apoA-I (243 residues) expressed in E. coli, thioredoxin/His tag removed with 3C protease
Kind of experiment: ITC (also Tm shift by CD thermal denaturation, EC50 […]; TSA; ANS). In kind it is binding.

Experiment [2] addresses T1, apoA-I[L178P]. Described as above. Type of experiment: binding. The source holds these as a separate data set.

T1 sequence (P02647 25-267 L202P): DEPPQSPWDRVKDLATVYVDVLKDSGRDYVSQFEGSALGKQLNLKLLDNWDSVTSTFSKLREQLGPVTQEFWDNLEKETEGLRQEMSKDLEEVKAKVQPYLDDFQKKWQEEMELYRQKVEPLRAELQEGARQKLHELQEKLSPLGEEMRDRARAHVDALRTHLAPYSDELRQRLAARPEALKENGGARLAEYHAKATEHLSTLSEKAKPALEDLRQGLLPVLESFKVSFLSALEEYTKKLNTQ

As to `CC(C)c1c(C(=O)Nc2ccccc2)c(-c2ccccc2)c(-c2ccc(F)cc2)n1CC[C@@H](O)C[C@@H](O)CC(=O)O` [C8, atorvastatin], at apoA-I[L178P] [1], the EC50 turned out to be 400 µM.

Consider `C=C(c1ccc(C(=O)O)cc1)c1cc2c(cc1C)C(C)(C)CCC2(C)C` [C9-p1, bexarotene], for which the 50% effective concentration (EC50) on apoA-I[L178P] [2] turned out to be 98 µM.
